Experimental data published in patent publication US20250295618A1, “PARASYMPATHETIC NERVE ACTIVATION AGENT AND PARASYMPATHETIC NERVE ACTIVATION COMPOSITION” (MARUZEN PHARMACEUTICALS CO., LTD., priority 2022, published 2025).

Experiments:
Type in all cases: in vivo, male Whistar rats
[1] = tested on: parasympathetic nerve (vagus nerve) innervating the intestines (small intestine and large intestine); test: Test Example 1: neural activity of distal branches of vagus (parasympathetic) nerve for the intestine (IVNA) after intragastric administration; conditions: urethane-anesthetized rats, measured for 60 minutes, percentage of value at 0 minutes (100%), FIG. 3
Description: (§1) The effect of the intragastric administration of the compound represented by Structural Formula (1) on the activity of the parasympathetic nerve innervating the stomach, the pancreas, or the intestine was tested in the following manner. For the experiment, male Whistar rats (approximately 9 weeks old) each having a body weight of approximately 300 g were kept in a 24° C. thermostatic animal room for 1 week or longer with a 12-hour light-dark cycle (lighting from 8:00 to 20:00). On the day of the experiment, the rats were fasted for 3 hours, followed by anesthetizing with urethane. A cannula for intragastric administration was inserted into each of the rats, and then distal branches of the parasympathetic nerve (vagus nerve) innervating the stomach, the pancreas, or the intestines (small intestine and large intestine) were lifted with a silver electrode, and the electrical activity thereof was measured. […] In addition, as a control, water serving as a solvent was intragastrically administered using the cannula at a dose of 0.5 mL/300 g of body weight, and the change in the neural activity of the distal branches of the above parasympathetic nerves was measured electrophysiologically for 60 minutes. […]

[2] = tested on: parasympathetic nerve (vagus nerve) innervating the stomach; test: Test Example 1: neural activity of distal branches of vagus (parasympathetic) nerve for the stomach (GVNA) after intragastric administration; conditions: urethane-anesthetized rats; intragastric 0.015 mg/0.5 mL/300 g of body weight; measured for 60 minutes; percentage of value at 0 minutes (100%); FIG. 1
Description: as §1

[3] = tested on: parasympathetic nerve (vagus nerve) innervating the pancreas; test: Test Example 1: neural activity of distal branches of vagus (parasympathetic) nerve for the pancreas (PVNA) after intragastric administration; conditions: urethane-anesthetized rats, measured for 60 minutes, percentage of value at 0 minutes (100%), FIG. 2
Description: as §1

[4] = intragastric 0.00015 mg/0.5 mL/300 g of body weight
[5] = intragastric 0.0015 mg/0.5 mL/300 g of body weight

## COc1cc(CCC(=O)O)ccc1O [3-(4-hydroxy-3-methoxyphenyl)propionic acid]
[1]; [4]
  intestinal vagal nerve activity (IVNA) value compared with the water group: IVNA values higher than the IVNA value of the group to which water serving as the solvent was administered
[1]; [5]
  intestinal vagal nerve activity (IVNA) value compared with the water group: IVNA values higher than the IVNA value of the group to which water serving as the solvent was administered
[2]
  gastric vagal nerve activity (GVNA) value compared with the water group: GVNA value higher than the GVNA value of the group to which water serving as the solvent was administered
[3]; [4]
  pancreatic vagal nerve activity (PVNA) value compared with the water group: PVNA value higher than the PVNA value of the group to which water serving as the solvent was administered
[3]; [5]
  pancreatic vagal nerve activity (PVNA) value compared with the water group: PVNA value higher than the PVNA value of the group to which water serving as the solvent was administered
